Test results reported in a melting point compilation (Tetko et al.; mined from patent text by program, amines drawn as free bases though some values may be those of a salt).

SMILES | melting point [°C]
COc1ccc(C2(C#N)CCC(=C3SCCCS3)CC2)cc1OC1CCCC1 (stereo not drawn) | 115 to 116
Cn1c(C(F)(F)F)cc(=O)n(-c2c(F)cc(Cl)c3cc(C=O)oc23)c1=O | 180 to 183
CCN1C(=O)N=NC1c1ccc(Cl)cc1 (stereo not drawn) | 190 to 197
CC(C)(C)C1=CC(=Nc2ccc(CC#N)cc2)C=C(C(C)(C)C)C1=O | 126 to 128
CC(=O)N1C(=O)NC(=O)C12c1ccccc1N(C)C(=O)N2C (stereo not drawn) | 261 to 263
CCn1nc2c(N)nc3ccccc3c2c1CC1(F)CCN(S(C)(=O)=O)CC1 | 269 to 271
CCN(CC)c1c([N+](=O)[O-])cc(C(F)(F)F)c(Cl)c1[N+](=O)[O-] | 35 to 36
CC(C)(CC12CC3CC(CC(C3)C1)C2)NC=O | 87 to 88
CS(=O)(=O)c1cn(CC2=NCCN2)c2ccc(N)cc12 | 215 to 217
COC(=O)c1ccc(OC)cc1I | 185
O=C(c1ccc(Cl)cc1)c1ccc2c(c1)C(c1cccc(Cl)c1)=NCc1nnnn1-2 | 220
CCC(=O)NCC=C1CCc2ccc3nn(C)cc3c21 | 185 to 187
CNC1=NS(=O)(=O)N=C1NCCSCc1nc[nH]c1C | 98 to 110
COCCOc1cc2ncc(C#N)c(Cl)c2cc1O | 174 to 175
CCc1c(CC(C)(C)C(=O)O)ccc2c1OCO2 | 73 to 74
CCOc1ccc2[nH]c(=O)n(C3CCCCCC3)c2c1 | 204
COc1cc(O)c(C(=O)C=Cc2ccc(N(C)C)cc2)c(OC)c1 | 197
CNc1ccc(N2CCOC2=O)cc1[N+](=O)[O-] | 192
CC(=O)Nc1cc(F)ccc1SCC#N | 113 to 115
O=C(CCCCCN1CCN(c2cccc(C(F)(F)F)c2)CC1)N1Cc2ccc(C(=O)N3CCCCC3)cc2C1 | 91
CCCS(=O)c1csc(C(=O)OC)c1S(N)(=O)=O (stereo not drawn) | 131 to 144
CCCCCCCCCCCCS(=O)(=O)Nc1cc(NC(=O)c2ccc(F)c(F)c2)ccc1OC | 132

SMILES | melting point [°C]
CCc1cn(C2CC(OC(C)=O)C(CCC(=O)Cc3c(Cl)cccc3Cl)O2)c(=O)[nH]c1=O (stereo not drawn) | 186
CCCCCCCCCCCCCCCCCC(=O)NC(=O)OCc1nc(C(C)C)c(Sc2cc(Cl)cc(Cl)c2)n1Cc1ccncc1 | 73 to 77
CCOC(=O)CC(NC(=O)C1CCCCC1)C(=O)c1ccco1 (stereo not drawn) | 58 to 61
CCCc1nn(C)c(C(N)=O)c1NC(=O)c1cc2cccc(OCC)c2o1 | 219 to 221
O=Cc1c(Cl)cc(CO)cc1Cl | 109 to 110
COc1ccc(S)c(Cl)c1Cl | 81.5 to 83
Nc1nc2ccccc2c2c1nc(CO)n2CC1CCOCC1 | 239 to 241
CCCc1cc(-c2noc3cc(O)ccc23)c(CC)cc1O | 125 to 127
Cc1cccc(OC2CN(C(N)=O)C2)c1 | 167 to 168
COc1ccc2c(c1)sc1[nH]c(=O)c(=O)[nH]c12 | > 300
Cc1c(C(=O)CCl)c(C)n(C)c1C(=O)c1ccc(Cl)cc1Cl | 100 to 102
CC(Oc1ccccc1Cl)c1nnc(N)s1 (stereo not drawn) | 160 to 164
Cc1nc(-c2cc(C(C)(C)C)c(O)c(C(C)(C)C)c2)no1 | 126 to 127
CCCn1nc2c(N)nc3ccccc3c2c1CCN1CCCS1(=O)=O | 201 to 202
COc1ccc(C2=NOC3(C2)C(=O)CN(C)C3=O)cc1OC1CCCC1 (stereo not drawn) | 169 to 170
CC1Oc2c(F)cc(CN3CC=C(c4ccc(Cl)cc4)CC3)cc2NC1=O (stereo not drawn) | 214 to 233
O=C(CO)c1ccc(Cl)c(Cl)c1 | 115 to 118
CCOC(=O)C(=CC1(OC)C=C2OCOC2=CC1)C(=O)OCC (stereo not drawn) | 118
OCC1OC(n2c(Cl)nc3cc(Cl)c(Br)cc32)C(O)C1O (stereo not drawn) | 158 to 159
CC1(C)Cc2c(sc(N)c2C(N)=O)C(C)(C)C1 | 140 to 145
Cc1cc2cc(OCCC#N)ccc2o1 | 73 to 76

Next, values leading:

melting point [°C] | SMILES
188 to 190 | CN(c1n[nH]c2ncnc(Nc3cccc(Cl)c3)c12)C1CCCCC1
178 to 179 | O=C(CN1C2=NCCN2c2ccccc21)c1ccccc1
> 250 | COc1cc2nc(N3CCN(c4nc5ccccc5[nH]4)CC3)nc(N)c2cc1OC
81 | CCCCCc1ccc(-c2ccc(CCc3ccc(OCC)cc3)cc2)cc1
216 to 219 | O=C1C(O)=C(C2CCC(c3ccc(Cl)cc3)CC2)C(=O)c2ccccc21 (stereo not drawn)
150 to 153 | Fc1cc(C(F)(F)F)ccc1/C=C/c1nc(COc2ccc(-c3nc(Cn4ccnc4)co3)cc2)co1
125 | CCC(=O)Oc1cccc2c1C(=O)c1c(OC(=O)CC)cccc1C2C(=O)CC
112 to 114 | Cc1ccccc1C(=O)Nc1ccc(C(=O)N2Cc3ccccc3Cc3ccccc32)c(C)c1
76 to 77 | CC(C)OCC1(C(F)(F)F)c2cc(C#N)ccc2Nc2ncc(Br)cc21 (stereo not drawn)
172 to 173 | O=C1C(c2cccn2Cc2ccccc2)=CC(=O)c2ncccc21
176 to 185 | CCOC(=O)c1ncn2c1cc(-c1ccccc1)c1ccccc12
203 to 204 | CN(C)c1ccc2c(=O)[nH]c(=O)n(CCCCN3CCC(OC(c4ccccc4)c4ccccc4)CC3)c2c1
206 | Nc1nc(NCCN2CCC(Nc3nc4ccccc4n3Cc3ccc(F)cc3)CC2)ccc1[N+](=O)[O-]
145 | NC(=O)C1CCCc2ccc(-c3ccccc3)nc21 (stereo not drawn)
120 to 121 | CC(C)c1ccc(N(Cc2ccc(OCc3ccccc3)cc2)C(=O)C2CCCc3ccccc32)cc1 (stereo not drawn)
95 to 96 | OC(CCc1cccnc1)COc1ccc(CCc2ccccc2)cc1 (stereo not drawn)
103 to 105 | COc1ccnc(-c2sccc2S(C)=O)c1 (stereo not drawn)
123 to 124 | O=C(O)C(=O)c1ccc(OCCCc2ccc3ccccc3c2)cc1
202 to 204 | COC1Cn2ccc(=O)c(OCc3ccccc3)c2C(c2ccccc2)O1 (stereo not drawn)
142 | Cc1cc(NC(N)=O)cc(C)c1NC(=O)CN1CCN(CCCC(c2ccc(F)cc2)c2ccc(F)cc2)C(C(N)=O)C1 (stereo not drawn)
132 to 135 | OCCC1(CCO)c2ccccc2Sc2ccccc21
107 to 108 | Cc1c(-c2cn(C)c3c(-c4ccccc4)cccc23)nc2ccc(F)cc2c1C(=O)O
182 | COC(=O)C1=C(C)NC(C)=C(C(=O)OCCN2C(=O)c3ccccc3C2=O)C1c1cccc([N+](=O)[O-])c1 (stereo not drawn)
144 | CC1CCC(C(C)C)C(OC(=O)N2CC(=O)N(C)c3ccc(Cl)cc3C2c2ccccc2)C1 (stereo not drawn)
153 to 155 | O=C(NC1CCN(c2ccccc2)C1)c1ccc([N+](=O)[O-])cc1 (stereo not drawn)
207 to 209 | CC(C)(C)OC(=O)NC1COCCCC=CC2CC2(C(=O)NS(=O)(=O)C2CC2)NC(=O)C2CC(OC(=O)c3ccc(Oc4ccccc4)cc3)CN2C1=O (stereo not drawn)
163 to 166 | O=C(NCc1ccc(Cl)cc1)c1cc(Cl)c2cccnc2c1O
161 to 165 | Cc1cccc(S(=O)(=O)n2c(CCC(=O)O)cc3cc(Cl)ccc32)c1

melting point [°C] | SMILES
59 to 61 | OCC1=Cc2cccc(OCc3ccccc3)c2CC1
257 to 258 | Cn1nc(-c2ccncc2)c(-c2ccc(Cl)cc2)c1N
121 to 122 | Brc1c(-c2ccccc2)n[nH]c1Sc1ccccc1
106 to 108 | COC(=O)c1ccc(C#Cc2ccccc2F)o1
169 to 172 | CN(CCNc1ccc2c3c(nn2CCN)-c2c(OCc4ccccc4)ccc(OCc4ccccc4)c2C(=O)c13)Cc1ccccc1
297 to 298 | Cc1ccc(-n2c(-c3ccc(C=Cc4ccccc4)cc3)ccc2-c2ccc(C=Cc3ccccc3)cc2)cc1
66 to 68 | CCCCN(C)CCc1ccc(Nc2ncc3c(n2)-c2ccccc2C(c2cccc(Br)c2)C3)cc1 (stereo not drawn)
280 | CCOC(=O)c1ccc2c(c1)C(c1ccc(O)cc1)(c1ccc(O)cc1)c1ccccc1-2
144 to 146 | Fc1ccc(C2(c3ccc(F)cc3)CNC(c3cnccn3)=N2)cc1
115 to 116 | O=C(SC(Cn1ccnc1)c1ccc(Cl)cc1Cl)c1ccccc1 (stereo not drawn)
113 to 114 | CCN(CC)C(=O)c1cc(C)ccc1-c1ccc(OC)cc1
175 to 178 | COc1c(C#C[Si](C)(C)C)cc(-n2ccc(=O)[nH]c2=O)cc1-c1ccc2cc(NS(C)(=O)=O)ccc2c1
185 to 186 | Cn1c(CCCOc2ccc(CC3SC(=O)NC3=O)cc2)nc2cccnc21 (stereo not drawn)
210 to 212 | O=C(Nc1ccc(F)cc1)c1ccc(C2COC(c3c(F)cccc3F)=N2)cc1 (stereo not drawn)
230 to 235 | CC1(C)Oc2ccc(C(N)=O)cc2C(c2cccn(Cc3ccccc3)c2=O)C1O (stereo not drawn)
92 to 93 | CC(C)(C)OC(=O)N[C@@H](CCC(=O)Oc1ccc(-c2nn(C3CCCC3)c3c(F)cccc23)cc1)C(=O)OC(C)(C)C
166 to 168 | O=C(O)CC(=O)Nc1ccc2c(c1)c(=O)[nH]c(=O)n2CCCCN1CCC(OC(c2ccccc2)c2ccccc2)CC1
268 to 269 | O=C(Nc1nnn[nH]1)c1cc(Cl)ccc1[N+](=O)[O-]
138 to 145 | CON=CC(C)(C#N)NC(=O)C(Oc1ccc2ncc(Br)cc2c1)SC (stereo not drawn)
348 to 350 | COc1ccccc1-n1c(=O)[nH]c2c(C(N)=O)nc(-c3cccc(C(=O)O)c3)nc21
138 to 147 | NCC(O)COc1ccc(-c2ccccc2)cc1 (stereo not drawn)
174 to 176 | O=C1C(=O)c2ccccc2C2=C1SCC1(CCN(CC(O)COc3ccccc3)CC1)O2 (stereo not drawn)
108 | COc1ccc(CCCc2ccc(O)cc2O)c(OC)c1C
90 to 92 | CC1(C)Cc2cc(OCCO)c3c(c2C(c2ccccc2)=N1)CC(C)(C)O3
209 to 214 | Cc1ccc(C(=O)Nc2ccccc2C(=O)NCCc2ncc[nH]2)cc1
213 to 216 | O=C1CCC2=C(c3ccccc3)c3ccccc3C2N1 (stereo not drawn)
295 | Cn1c2ccc(F)cc2c(=O)n2nc(C(=O)O)cc12
